Source: patent publication US6355799B1, “Substituted benzene compounds, process for their preparation, and herbicidal and defoliant compositions containing them” (ISK Americas Incorporated, priority 1997, dated 2002)

Legend:
Assay type in all cases: in vivo
[1] = tested on: upland rice (Oryza sp., var. Tebonnet, RICE); assay: Post-emerge test, crop safety; conditions: phytotoxicity rating 0-100 (0 no damage, 100 complete death), 14 days after application
Procedure, shortened: (§1)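 Plants grown in 10 cm pots of sandy loam mix received acetone-dissolved compounds through a moving flat-fan nozzle. Doses ranged from 15 to 1000 g ai/ha. Pre-emerge pots were seeded one day earlier, post-emerge pots 8–21 days earlier. Fourteen days on, each pot was graded 0–100 for damage.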

[2] = tested on: field corn (Zea mays L., var. Dekalb 535, CORN); assay: Post-emerge test, crop safety; conditions: phytotoxicity rating 0-100 (0 no damage, 100 complete death), 14 days after application
Procedure, shortened: as §1

[3] = tested on: upland rice (Oryza sp., var. Tebonnet, RICE); assay: Pre-emerge test, crop safety; conditions: rated 14 days after application, 0 = no damage, 100 = complete death
Procedure, shortened: (§2)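 Fourteen days after spraying, crop and weed injury was graded visually from 0, no effect, to 100, every plant dead. Test substances were dissolved in acetone and applied at 15–1000 g ai/ha with a flat-fan nozzle. Application was either pre-emergence, one day after sowing, or post-emergence at the 2–3 leaf stage.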

[4] = tested on: field corn (Zea mays L., var. Dekalb 535, CORN); assay: Pre-emerge test, crop safety; conditions: rated 14 days after application, 0 = no damage, 100 = complete death
Procedure, shortened: as §2

[5] = tested on: barnyardgrass (Echinochloa crus-galli, ECHCG); assay: Post-emerge test, greenhouse herbicide activity screening; conditions: phytotoxicity rating 0-100 (0 no damage, 100 complete death), 14 days after application
Procedure, shortened: (§3)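 Each test used a mechanized track sprayer delivering 187 l/ha of acetone solution at 15–1000 g ai/ha. Post-emerge foliage at 2–3 leaves was treated with added 0.25% v/v non-ionic surfactant and bottom-watered only. Injury was assessed on day 14, where 100 means total kill.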

[6] = tested on: sicklepod (Cassia obtusifolia, CASOB); assay: as above; conditions: phytotoxicity rating 0-100 (0 no damage, 100 complete death), 14 days after application
Procedure, shortened: as §3

[7] = tested on: velvetleaf (Abutilon theophrasti, ABUTH); assay: as above; conditions: phytotoxicity rating 0-100 (0 no damage, 100 complete death), 14 days after application
Procedure, shortened: as §3

[8] = tested on: ivyleaf morningglory (Ipomoea hederacea, IPOHE); assay: as above; conditions: phytotoxicity rating 0-100 (0 no damage, 100 complete death), 14 days after application
Procedure, shortened: as §3

[9] = tested on: large crabgrass (Digitaria sanguinalis, DIGSA); assay: as above; conditions: phytotoxicity rating 0-100 (0 no damage, 100 complete death), 14 days after application
Procedure, shortened: as §3

[10] = tested on: green foxtail (Setaria viridis, SETVI); assay: as above; conditions: phytotoxicity rating 0-100 (0 no damage, 100 complete death), 14 days after application
Procedure, shortened: as §3

[11] = tested on: johnsongrass (Sorghum halepense, SORHA); assay: as above; conditions: phytotoxicity rating 0-100 (0 no damage, 100 complete death), 14 days after application
Procedure, shortened: as §3

[12] = tested on: redroot pigweed (Amaranthus retroflexus, AMARE); assay: as above; conditions: phytotoxicity rating 0-100 (0 no damage, 100 complete death), 14 days after application
Procedure, shortened: as §3

[13] = tested on: lambsquarters (Chenopodium album, CHEAL); assay: as above; conditions: phytotoxicity rating 0-100 (0 no damage, 100 complete death), 14 days after application
Procedure, shortened: as §3

[14] = tested on: barnyardgrass (Echinochloa crus-galli, ECHCG); assay: Pre-emerge test, greenhouse herbicide activity screening; conditions: rated 14 days after application, 0 = no damage, 100 = complete death
Procedure, shortened: (§4)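 Rating: 0–100 visual injury, 14 DAA. Application: acetone, 187 l/ha, 15–1000 g ai/ha, flat-fan track sprayer with nozzle 40–45 cm above soil or canopy. Post-emerge runs used 0.25% v/v surfactant on 2–3 leaf plants.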

[15] = tested on: sicklepod (Cassia obtusifolia, CASOB); assay: as above; conditions: rated 14 days after application, 0 = no damage, 100 = complete death
Procedure, shortened: as §4

[16] = tested on: velvetleaf (Abutilon theophrasti, ABUTH); assay: as above; conditions: rated 14 days after application, 0 = no damage, 100 = complete death
Procedure, shortened: as §4

[17] = tested on: ivyleaf morningglory (Ipomoea hederacea, IPOHE); assay: as above; conditions: rated 14 days after application, 0 = no damage, 100 = complete death
Procedure, shortened: as §4

[18] = tested on: large crabgrass (Digitaria sanguinalis, DIGSA); assay: as above; conditions: rated 14 days after application, 0 = no damage, 100 = complete death
Procedure, shortened: as §4

[19] = tested on: green foxtail (Setaria viridis, SETVI); assay: as above; conditions: rated 14 days after application, 0 = no damage, 100 = complete death
Procedure, shortened: as §4

[20] = tested on: johnsongrass (Sorghum halepense, SORHA); assay: as above; conditions: rated 14 days after application, 0 = no damage, 100 = complete death
Procedure, shortened: as §4

[21] = tested on: lambsquarters (Chenopodium album, CHEAL); assay: as above; conditions: rated 14 days after application, 0 = no damage, 100 = complete death
Procedure, shortened: as §4

[22] = tested on: redroot pigweed (Amaranthus retroflexus, AMARE); assay: as above; conditions: rated 14 days after application, 0 = no damage, 100 = complete death
Procedure, shortened: as §4

CCc1ccc(C(=O)Nc2c(OCC#N)c(Cl)cc(F)c2-n2c(=O)cc(C(F)(F)F)n(C)c2=O)cc1 [2-28]
Post-emerge Herbicidal Activity RICE (crop damage) ([1]; 63 g ai/ha): 90
Post-emerge Herbicidal Activity RICE (crop damage) ([1]; 250 g ai/ha): 90
Post-emerge Herbicidal Activity CORN (crop damage) ([2]; 63 g ai/ha): 15
Post-emerge Herbicidal Activity CORN (crop damage) ([2]; 250 g ai/ha): 25
Pre-emerge crop damage RICE (phytotoxicity rating, scale 0-100) ([3]; 63 g ai/ha): 60
Pre-emerge crop damage RICE (phytotoxicity rating, scale 0-100) ([3]; 250 g ai/ha): 70
Pre-emerge crop damage CORN (phytotoxicity rating, scale 0-100) ([4]; 63 g ai/ha): 0
Pre-emerge crop damage CORN (phytotoxicity rating, scale 0-100) ([4]; 250 g ai/ha): 10
Post-emerge Herbicidal Activity ECHCG ([5]; 63 g ai/ha): 0
Post-emerge Herbicidal Activity ECHCG ([5]; 250 g ai/ha): 0
Post-emerge Herbicidal Activity CASOB ([6]; 63 g ai/ha): 30
Post-emerge Herbicidal Activity CASOB ([6]; 250 g ai/ha): 20
Post-emerge Herbicidal Activity ABUTH ([7]; 63 g ai/ha): 100
Post-emerge Herbicidal Activity ABUTH ([7]; 250 g ai/ha): 100
Post-emerge Herbicidal Activity IPOHE ([8]; 63 g ai/ha): 60
Post-emerge Herbicidal Activity IPOHE ([8]; 250 g ai/ha): 50
Post-emerge Herbicidal Activity DIGSA ([9]; 63 g ai/ha): 0
Post-emerge Herbicidal Activity DIGSA ([9]; 250 g ai/ha): 0
Post-emerge Herbicidal Activity SETVI ([10]; 63 g ai/ha): 30
Post-emerge Herbicidal Activity SETVI ([10]; 250 g ai/ha): 30
Post-emerge Herbicidal Activity SORHA ([11]; 63 g ai/ha): 0
Post-emerge Herbicidal Activity SORHA ([11]; 250 g ai/ha): 0
Post-emerge Herbicidal Activity AMARE ([12]; 63 g ai/ha): 100
Post-emerge Herbicidal Activity AMARE ([12]; 250 g ai/ha): 100
Post-emerge Herbicidal Activity CHEAL ([13]; 63 g ai/ha): 60
Post-emerge Herbicidal Activity CHEAL ([13]; 250 g ai/ha): 60
Pre-emerge Herbicidal Activity ECHCG (phytotoxicity rating, scale 0-100) ([14]; 63 g ai/ha): 0
Pre-emerge Herbicidal Activity ECHCG (phytotoxicity rating, scale 0-100) ([14]; 250 g ai/ha): 20
Pre-emerge Herbicidal Activity CASOB (phytotoxicity rating, scale 0-100) ([15]; 63 g ai/ha): 5
Pre-emerge Herbicidal Activity CASOB (phytotoxicity rating, scale 0-100) ([15]; 250 g ai/ha): 100
Pre-emerge Herbicidal Activity ABUTH (phytotoxicity rating, scale 0-100) ([16]; 63 g ai/ha): 100
Pre-emerge Herbicidal Activity ABUTH (phytotoxicity rating, scale 0-100) ([16]; 250 g ai/ha): 100
Pre-emerge Herbicidal Activity IPOHE (phytotoxicity rating, scale 0-100) ([17]; 63 g ai/ha): 80
Pre-emerge Herbicidal Activity IPOHE (phytotoxicity rating, scale 0-100) ([17]; 250 g ai/ha): 100
Pre-emerge Herbicidal Activity DIGSA (phytotoxicity rating, scale 0-100) ([18]; 63 g ai/ha): 50
Pre-emerge Herbicidal Activity DIGSA (phytotoxicity rating, scale 0-100) ([18]; 250 g ai/ha): 90
Pre-emerge Herbicidal Activity SETVI (phytotoxicity rating, scale 0-100) ([19]; 63 g ai/ha): 50
Pre-emerge Herbicidal Activity SETVI (phytotoxicity rating, scale 0-100) ([19]; 250 g ai/ha): 100
Pre-emerge Herbicidal Activity SORHA (phytotoxicity rating, scale 0-100) ([20]; 63 g ai/ha): 10
Pre-emerge Herbicidal Activity SORHA (phytotoxicity rating, scale 0-100) ([20]; 250 g ai/ha): 50
Pre-emerge Herbicidal Activity CHEAL (phytotoxicity rating, scale 0-100) ([21]; 63 g ai/ha): 100
Pre-emerge Herbicidal Activity CHEAL (phytotoxicity rating, scale 0-100) ([21]; 250 g ai/ha): 100
Pre-emerge Herbicidal Activity AMARE (phytotoxicity rating, scale 0-100) ([22]; 63 g ai/ha): 100
Pre-emerge Herbicidal Activity AMARE (phytotoxicity rating, scale 0-100) ([22]; 250 g ai/ha): 100

COc1c(Cl)cc(F)c(-n2c(=O)cc(C(F)(F)F)n(C)c2=O)c1NC(=O)c1ccc(C)c(C)c1 [2-32]
Post-emerge Herbicidal Activity RICE (crop damage) ([1]; 63 g ai/ha): 30
Post-emerge Herbicidal Activity RICE (crop damage) ([1]; 250 g ai/ha): 80
Post-emerge Herbicidal Activity CORN (crop damage) ([2]; 63 g ai/ha): 30
Post-emerge Herbicidal Activity CORN (crop damage) ([2]; 250 g ai/ha): 95
Pre-emerge phytotoxicity rating (0-100), crop damage, RICE ([3]; 63 g ai/ha): 80
Pre-emerge phytotoxicity rating (0-100), crop damage, RICE ([3]; 250 g ai/ha): 99
Pre-emerge phytotoxicity rating (0-100), crop damage, CORN ([4]; 63 g ai/ha): 40
Pre-emerge phytotoxicity rating (0-100), crop damage, CORN ([4]; 250 g ai/ha): 95
Post-emerge Herbicidal Activity ECHCG ([5]; 63 g ai/ha): 0
Post-emerge Herbicidal Activity ECHCG ([5]; 250 g ai/ha): 90
Post-emerge Herbicidal Activity CASOB ([6]; 63 g ai/ha): 80
Post-emerge Herbicidal Activity CASOB ([6]; 250 g ai/ha): 100
Post-emerge Herbicidal Activity ABUTH ([7]; 63 g ai/ha): 100
Post-emerge Herbicidal Activity ABUTH ([7]; 250 g ai/ha): 100
Post-emerge Herbicidal Activity IPOHE ([8]; 63 g ai/ha): 100
Post-emerge Herbicidal Activity IPOHE ([8]; 250 g ai/ha): 100
Post-emerge Herbicidal Activity DIGSA ([9]; 63 g ai/ha): 0
Post-emerge Herbicidal Activity DIGSA ([9]; 250 g ai/ha): 70
Post-emerge Herbicidal Activity SETVI ([10]; 63 g ai/ha): 0
Post-emerge Herbicidal Activity SETVI ([10]; 250 g ai/ha): 90
Post-emerge Herbicidal Activity SORHA ([11]; 63 g ai/ha): 50
Post-emerge Herbicidal Activity SORHA ([11]; 250 g ai/ha): 95
Post-emerge Herbicidal Activity AMARE ([12]; 63 g ai/ha): 100
Post-emerge Herbicidal Activity AMARE ([12]; 250 g ai/ha): 100
Post-emerge Herbicidal Activity CHEAL ([13]; 63 g ai/ha): 95
Post-emerge Herbicidal Activity CHEAL ([13]; 250 g ai/ha): 100
Pre-emerge Herbicidal Activity, phytotoxicity rating (0-100), ECHCG ([14]; 63 g ai/ha): 99
Pre-emerge Herbicidal Activity, phytotoxicity rating (0-100), ECHCG ([14]; 250 g ai/ha): 100
Pre-emerge Herbicidal Activity, phytotoxicity rating (0-100), CASOB ([15]; 63 g ai/ha): 95
Pre-emerge Herbicidal Activity, phytotoxicity rating (0-100), CASOB ([15]; 250 g ai/ha): 100
Pre-emerge Herbicidal Activity, phytotoxicity rating (0-100), ABUTH ([16]; 63 g ai/ha): 100
Pre-emerge Herbicidal Activity, phytotoxicity rating (0-100), ABUTH ([16]; 250 g ai/ha): 100
Pre-emerge Herbicidal Activity, phytotoxicity rating (0-100), IPOHE ([17]; 63 g ai/ha): 100
Pre-emerge Herbicidal Activity, phytotoxicity rating (0-100), IPOHE ([17]; 250 g ai/ha): 100
Pre-emerge Herbicidal Activity, phytotoxicity rating (0-100), DIGSA ([18]; 63 g ai/ha): 100
Pre-emerge Herbicidal Activity, phytotoxicity rating (0-100), DIGSA ([18]; 250 g ai/ha): 100
Pre-emerge Herbicidal Activity, phytotoxicity rating (0-100), SETVI ([19]; 63 g ai/ha): 100
Pre-emerge Herbicidal Activity, phytotoxicity rating (0-100), SETVI ([19]; 250 g ai/ha): 100
Pre-emerge Herbicidal Activity, phytotoxicity rating (0-100), SORHA ([20]; 63 g ai/ha): 90
Pre-emerge Herbicidal Activity, phytotoxicity rating (0-100), SORHA ([20]; 250 g ai/ha): 100
Pre-emerge Herbicidal Activity, phytotoxicity rating (0-100), CHEAL ([21]; 63 g ai/ha): 100
Pre-emerge Herbicidal Activity, phytotoxicity rating (0-100), CHEAL ([21]; 250 g ai/ha): 100
Pre-emerge Herbicidal Activity, phytotoxicity rating (0-100), AMARE ([22]; 63 g ai/ha): 100
Pre-emerge Herbicidal Activity, phytotoxicity rating (0-100), AMARE ([22]; 250 g ai/ha): 100
